Active and inactive are the calls of the source. How the calls were made is not given here.
System: S. cerevisiae LAP4-GFP reporter, flow cytometry fluorescence
Assay: concentration series on yeast TOR reporter LAP4 – cell-based, MLPCN hits, flow cytometry, dose response (AID 2745);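 further: yeast exposed to compound for three hours at 30 degrees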
Conditions: not given

SMILES | EC50 [µM]
O=C(/C=C/c1ccccn1)c1cc(Br)ccc1O | 4.09
Cc1cccc(C)c1NC(=O)C(Cl)C(=O)c1ccccc1 (stereo not drawn) | 1.45
CCOC(=O)/C(=C\c1cn(C)c2ccccc12)[N+](=O)[O-] | 2.24
Cc1cc(C(=O)COC(=O)c2ccc[nH]c2=O)c(C)n1-c1ccccc1F | 0.863
COc1ccc(/C=C/C(=O)C2C(=O)C=C(C)OC2=O)cc1O (stereo not drawn) | 11.7
CC1=C/C(=N\OS(=O)(=O)c2ccccc2)C(C(C)C)=CC1=O | 5.16
Cc1ccc(N/N=C(\C#N)C(N)=S)c(C)c1 | 11.7
COc1ccc(C(=O)NC(=S)NNC(=O)c2cnccn2)cc1 | 1.32
Oc1c(I)cc(I)c2cccnc12 | 0.7
O=C(Nc1ccc(Cl)cc1Cl)c1cccc(N2C(=O)C=CC2=O)c1 | 3.92
COc1cccc(/C=N/Nc2ncc(C(F)(F)F)cc2Cl)c1O | 6.3
Cc1ccsc1/C=C1\C(=O)NC(=S)N(C)C1=O | 0.327
C/C(=N\NC(=O)c1cc2ccccc2cc1O)c1ccccn1 | 3.98
COc1ccc(C2=CC(=O)N(Nc3ccccc3)C2=O)cc1 | 9.78
Cc1ccc(NC(=O)c2ccc(Cl)c(N3C(=O)C=CC3=O)c2)cc1 | 1.59
COc1cccc(N=Nc2ccc(O)c3ncccc23)c1 | 3.36
O=C(c1ccc(C(=O)N2CCCc3ccccc32)s1)N1CCCc2ccccc21 | 7.77
Oc1c(I)cc(Cl)c2cccnc12 | 0.986
CC(C)(C)c1nnc(N/N=C/c2cc(Br)ccc2O)n(N)c1=O | 12.2
Oc1ccc(Br)cc1/C=N/Nc1ccccn1 | 22.7
CCOC(=O)c1ccc(N=Cc2nc(-c3ccccc3)oc2OC(C)=O)cc1 | 25.9
Cc1ccc(NN2C(=O)C=C(c3ccc(Cl)cc3)C2=O)cc1 | 0.691
O=C(O)/C=C/C(=O)c1ccc2c(c1)CCc1ccccc1-2 | 1.2
Cc1ccc(S(=O)(=O)c2ncccc2[N+](=O)[O-])cc1 | 14.6
CCc1sc(C(=O)Nc2nc(-c3ccccn3)cs2)cc1C | 3.94
CCCCCCCCn1sccc1=O | 0.912
O=S(=O)(CCN(CCS(=O)(=O)C(F)(F)F)CC1CCCO1)C(F)(F)F (stereo not drawn) | 7.67

SMILES | EC50 [µM]
Cc1cc(O)c(C(=O)/C=C/c2ccc(Cl)cc2)c(=O)o1 | 6.38
Cn1ncc(S(=O)(=O)Cc2ccccc2)c(Cl)c1=O | 4.01
C/C(=N/NC(=O)c1ccc(C(C)(C)C)cc1)c1ccccn1 | 32.7
CC(C)(C)n1nc(-c2ccc(F)cc2)c2c(N)ncnc21 | 3.51
Clc1ccc(N=c2ssnc2Cl)cc1 | 19.3
O=C(C#Cc1ccccc1)c1ccco1 | 5.17
CC(C)(C)c1ccc(NC(=O)COC(=O)c2ccc([N+](=O)[O-])s2)cc1 | 3.72
CC1=NNC(=O)/C1=C\c1cn(-c2ccccc2)nc1-c1ccccc1 | 7.23
CN1CCN(C(=O)c2cc(COc3c(F)cccc3F)on2)CC1c1ccccc1 (stereo not drawn) | 6.66
Cc1ccc(C(=O)NNC(=S)NC(=O)COc2ccccc2)cc1 | 8.27
O=[N+]([O-])c1cc(S(=O)(=O)C(F)(F)F)ccc1Sc1nc2ccccc2s1 | 8.42
COc1ccc(N2C(=O)/C(=C/c3cccs3)C(=O)NC2=S)cc1 | 1.32
CCSc1nnc(NC(=O)c2ccccn2)s1 | 30.3
Oc1ccc2ccccc2c1N=Nc1nccs1 | 8.45
COc1ccc(/C=C2\C(=O)ON=C2c2ccccc2)cc1 | 6.86
O=c1/c(=C/c2cccc3ccccc23)sc2ncnn12 | 9.22
Cc1ccc(/C=C2/SC(=S)N(C3CCCCC3)C2=O)o1 | 13.3
Cc1cc(S(=O)(=O)ON2C(=O)c3ccccc3C2=O)ccc1F | 4.21
COc1cccc(/C=C/C(=O)c2c(O)cc(C)oc2=O)c1O | 4.42
COC(=O)/C(=C/c1c[nH]c2ccccc12)[N+](=O)[O-] | 20.7
Cc1ccc(O)c(N=Nc2nccs2)c1 | 4.52
COc1ccc(/C=C/C(=O)NC(=S)NNC(=O)c2cnccn2)cc1 | 1.31
O=C(/C=C/c1ccc(Cl)c([N+](=O)[O-])c1)c1cccnc1 | 28.6
Cc1cccc(N=Nc2ccc(O)c3ncccc23)c1 | 14
Nc1ccc(Br)c2c1C(=O)c1ccccc1C2=O | 1.18
Cc1ccc(/C=N/Nc2ncc(Cl)cc2Cl)s1 | 31.7
CCCCC(=O)NNC(=S)NC(=O)c1ccc(C)cc1 | 11.3

SMILES | EC50 [µM]
COc1ccc(N=Nc2ccc(O)c3ncccc23)cc1 | 6.43
O=C1C2C3C=CC(CO)(O3)C2C(=O)N1c1ccc(-c2ccccc2)cc1 (stereo not drawn) | 1.53
COc1cc(N2C(=O)C=CC2=O)c(OC)cc1Cl | 1.44
O=C(Nc1nc(-c2ccccn2)cs1)c1cc2ccccc2o1 | 4.09
CCCOc1ccc(C(=O)NNC(=S)NC(=O)c2ccco2)cc1 | 13.3
O=C1NC(=O)N(c2ccccc2)C(=O)/C1=C/c1ccc(Sc2ccccc2)o1 | 11.2
COc1ccc(N2C(=O)C(Cl)=C(Oc3cccc(OC)c3)C2=O)cc1 | 4.89
ClC(Cl)(c1nnnn1-c1ccccc1)c1nnnn1-c1ccccc1 | 3.8
COc1ccc(C(=O)NNC(=S)NC(=O)/C=C/c2cccs2)cc1 | 9.05
O=C(Nc1nnc(-c2ccc(Cl)cc2)o1)c1ccccc1Br | 4.31
CC1=NNC(=O)/C1=C\c1cn(-c2ccccc2)nc1-c1cccs1 | 1.32
O=C1Oc2ccccc2C(=O)/C1=C/c1ccccc1O | 3.75
COc1ccccc1N=Nc1ccc(O)c2ncccc12 | 4.25
CC(Oc1cccc(Cl)c1)C(=O)Nc1nc(-c2ccccn2)cs1 (stereo not drawn) | 25.1
O=C1NC(=S)NC(=O)C1=Cc1ccc2c(c1)CCN2CCCCl | 4.06
O=[N+]([O-])c1ccc(S(=O)(=O)c2cccc(C(F)(F)F)c2)nc1 | 21.5
COc1ccc(N2CCN(C(=O)c3ccc(Br)cc3)CC2)c([N+](=O)[O-])c1 | 11.4
Cc1ccc(C(=O)O)cc1N=Cc1cc(Br)cc(Br)c1O | 4.17
O=S1(=O)C=C(Sc2nc3ccccc3s2)c2ccccc21 | 3.29
Cc1ccc(/C=C/C(=O)c2ccccc(=O)c2O)c(C)c1 | 4.15
CC(C)(C)C(=O)C(Cl)C(=O)Nc1ccccc1 (stereo not drawn) | 14.6
N=C1S/C(=C\c2ccco2)C(=O)N1c1nccs1 | 4
O=C(Oc1ccnc2cc(Cl)ccc12)N1CCCCCC1 | 12.1
O=C1C=CC(=O)N1N(c1ccccc1)c1ccccc1 | 2.7
Cc1ccc(C(c2cc(Cl)c3cccnc3c2O)N2CCN(C)CC2)cc1 (stereo not drawn) | 2.21
CSC1=NS(=O)(=O)c2c(C)nn(C)c2S1 | 27.6
CNC(CC(=O)c1ccc([N+](=O)[O-])cc1)C(Cl)(Cl)Cl (stereo not drawn) | 1.34

SMILES | EC50 [µM]
Cc1c(C(=O)Nc2nc(-c3ccccn3)cs2)oc2ccccc12 | 4.01
O=C1C=CC(=O)N1c1cccc(-c2ccccc2)c1 | 0.385
CCOC(=O)CSC1=NC(=O)/C(=C/c2ccc(Br)cc2)S1 | 15
COc1cccc(C(=O)Nc2nnc(-c3ccc(Cl)cc3)o2)c1 | 3.84
Cc1ccc(/C=C2/C(=O)ON=C2c2ccccc2)o1 | 3.48
O=C1C=CC(=O)N1c1ccc(O)cc1 | 4.09
Cc1ccc(S(=O)(=O)ON2C(=O)c3ccccc3C2=O)c(C)c1 | 3.89
Cc1ccc(C(=O)Oc2oc(-c3ccco3)nc2C=Nc2ccc(Cl)cc2)cc1 | 3.6
CN1CCN(C(c2ccc(C(F)(F)F)cc2)c2ccc3cccnc3c2O)CC1 (stereo not drawn) | 6.72
CNc1nc(N)c([N+](=O)[O-])c(Nc2cccc(F)c2)n1 | 5.5
O=c1[nH]c(-c2ccccn2)nc(C(F)(F)F)c1Br | 2.55
CC1(C)C[C@H]2C=C(C=O)[C@]3(C=O)C[C@]3(C)[C@H]2C1 | 0.865
CC(C)(C)n1nc(-c2ccc(Cl)cc2)c2c(N)ncnc21 | 4.82
O=C(c1ccccc1)c1ccccc1N1C(=O)C=CC1=O | 2
O=C1ON=C(c2ccccc2)/C1=C/c1ccc(-c2ccccc2[N+](=O)[O-])o1 | 5
Cc1[nH]c(-c2ccccn2)nc(=S)c1Cl | 4.58
CC1=NOC(=O)/C1=C\c1ccc(-c2cc(Cl)ccc2Cl)o1 | 26.8
COc1cc(/C=C2\C(=O)N(CCC#N)N=C2C)c(Br)cc1OC(C)C | 4.16
O=C(/C=C/c1ccc(F)cc1)NC(=S)NNC(=O)c1cnccn1 | 1.54
Cc1ccc(/C=C2\C(=O)NC(=S)N(c3ccc(F)cc3)C2=O)s1 | 1.15
CC(Oc1ccc(Br)cc1)C(=O)Nc1nc(-c2ccccn2)cs1 (stereo not drawn) | 4
CCOC(=O)COc1ccc2ccccc2c1/C=C/[N+](=O)[O-] | 4.41
O=C(NC(=S)NNC(=O)c1cnccn1)c1ccc(Cl)cc1 | 1.75
O=[N+]([O-])c1ccc(N=Nc2c(Cl)cc(O)cc2Cl)cc1 | 4.97

System: not listed separately
Assay: as above
Conditions: S. cerevisiae LAP4-GFP reporter, flow cytometry fluorescence; at 33 µM (top of the series)

SMILES | LAP4-GFP fluorescence (kMESF)
CCC(=O)Nc1ccc(NC(=O)c2cc3ccccc3o2)cc1 | 3.31 kMESF (inactive)
Cc1ccc(C(=O)NNC(=S)NC(=O)c2ccco2)cc1 | 7.42 kMESF (inactive)
Nc1nc(N)c2nc(CNc3ccc(C(=O)NC(CCC(=O)O)C(=O)O)cc3)cnc2n1 (stereo not drawn) | 3.13 kMESF (inactive)
COc1cc(CNC(=O)CCCCCCC(C)C)ccc1O | 3.74 kMESF (inactive)
O=C1/C(=C\c2ccc(O)c(O)c2)SC(=S)N1Cc1ccccc1 | -9.95 kMESF (inactive)
COC(=O)CCC(=O)OC1(C)C(=O)C2=COC(c3ccc(OC)cc3)=CC2=C(Br)C1=O (stereo not drawn) | 6.01 kMESF (inactive)
O=C1CCN(S(=O)(=O)c2ccccc2)CCN1CCOCc1ccc(F)cc1 | 2.43 kMESF (inactive)
O=[N+]([O-])c1cc(CN2CCN(c3ccccc3)CC2)c(O)c2ncccc12 | 14.7 kMESF (inactive)
CCN(CC(=O)NC(C)(C)C)C(=O)COc1c(Cl)cc(Cl)c2ccc(C)nc12 | 11.7 kMESF (inactive)
Cc1[nH][nH]c(=O)c1C(c1ccc(-c2ccc(Cl)c(Cl)c2)o1)c1c(C)[nH][nH]c1=O | 6.01 kMESF (inactive)
O=C1c2ccccc2C(=O)N1OS(=O)(=O)c1ccc(F)cc1 | 9.97 kMESF (inactive)
Oc1ccc(COCc2ccccc2)c2cccnc12 | 20.4 kMESF (inactive)
O=C(c1ccc(Cl)cc1)N1CCN(c2cccc3[nH]ccc23)CC1 | 6.45 kMESF (inactive)

Source: PubChem BioAssay AID2745 (NMMLSC, 2010)
